pIC50: −log10 of the molar value.

For experiment [1], the system named is HepG2. Put plainly: Cytotoxicity against human HepG2 cells assessed as reduction in cell viability measured after 72 hrs by SRB assay. It counts as functional, cell-based. To be noted: for pIC50: HepG2, 72 h.
Experiment [2] has as its target Nicotinamide phosphoribosyltransferase (Homo sapiens, UniProt P43490). In words: Inhibition of NAMPT (unknown origin) using NAM and PRPP as substrates incubated for 2 hrs in presence of ATP by fluorimetric plate reader assay.

Sequence of Nicotinamide phosphoribosyltransferase (P43490 whole entry): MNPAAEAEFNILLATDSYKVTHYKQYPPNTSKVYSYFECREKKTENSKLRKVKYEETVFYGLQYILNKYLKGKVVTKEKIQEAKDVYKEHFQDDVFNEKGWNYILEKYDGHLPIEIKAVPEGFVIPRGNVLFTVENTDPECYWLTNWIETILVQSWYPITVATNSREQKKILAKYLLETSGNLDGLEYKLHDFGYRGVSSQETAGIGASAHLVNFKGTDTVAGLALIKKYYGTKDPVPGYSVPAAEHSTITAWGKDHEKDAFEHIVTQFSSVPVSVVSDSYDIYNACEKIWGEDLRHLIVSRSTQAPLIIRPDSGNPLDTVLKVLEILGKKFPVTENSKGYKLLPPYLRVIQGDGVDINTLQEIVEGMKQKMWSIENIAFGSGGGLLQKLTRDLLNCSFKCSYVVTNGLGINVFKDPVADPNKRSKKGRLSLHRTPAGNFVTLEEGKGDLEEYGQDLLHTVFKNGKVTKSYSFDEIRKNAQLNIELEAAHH

On to `CCCOC(=O)c1ccc(NC(=O)NCc2cccnc2)cc1`, for which, in experiment [1], the inhibition entry was “Dose-dependent effect”. Further, the pIC50 is 4.82 in experiment [1] and 5.67 in experiment [2].
For the molecule `CCOC(=O)c1ccc(NC(=O)NCc2ccnc(-n3ccnc3C)c2)cc1`, the pIC50 in experiment [1] was 4.61; in experiment [2], 5.14.
For `O=C(/C=C/c1cccnc1)NCCCCC1CCN(C(=O)c2ccccc2)CC1` [DAPORINAD], in experiment [1], the pIC50 is 7.73.

Values taken from ChEMBL document CHEMBL4613228, “Identification of small-molecule urea derivatives as novel NAMPT inhibitors via pharmacophore-based virtual screening” (Bioorg Med Chem, 2020).
